Legend:
[1] = test system: Mealworm (Tenebrio molitor); conditions: cited from earlier work
[2] = olive oil-loaded mice, 6 hours; cited from earlier work
[3] = Feeding experiment: body weight and body fat (DEXA) in rats; assay type: in vivo, Sprague-Dawley (SD) rats; conditions: high fat diet (34% fat), 0.1% by weight in chow, 8 weeks, male SD rats
Procedure: For the present experiments, the compound to be tested is added to the feed of the individuals. This is beneficial against enforcement because it allows a validation of the acceptance of the test compounds. The experiments are performed with negative control and are correlated to a commercial slimming product.
Cynaropicrin is tested using six weeks old, none-adult, male Sprague-Dawley (SD) rats (Charles Rivers, Sulzfeld, Germany). Cynaropicrin is mixed with the chow (ssniff Spezial-diäten GmbH, Soest, Germany) to a final concentration of 0.1% by weight and fed for 8 weeks in two different treatment regimes: • Balanced diet (standardised to 4% fat) • High fat diet (standardised to 34% fat)
Controls obtain the same diet without Cynaropicrin or other anti-obesity additives.
Body weight is studied and analysed every week, body fat and mineral bone density are analysed by DEXA (scanner, see Example 3) in week 0, in week 4 and at the last day of the study in week 8. Furthermore, the white body fat weight is determined after removal of the tissue at the end of the feeding study in week 8. For the DEXA measurements the same apparatuses and methodology are used as described in example 3.
The GE Lunar Piximus2 DEXA scanner (GE Healthcare, Munich, Germany) gives accurate information on differences in body composition in mice (see Nagy, T R and Clair, A-L. Precision and accuracy of dual-energy X-ray absorptiometry for determining in vivo body composition in mice. Obesity Res. 2000; 8:392-398; Brommage Am J Physiol Endocrinol Metab 285: E454-E459, 2003). Validation and calibration of DEXA body composition in mice; Sarah L. Johnston, Wendy L. Peacock, Lynn M. Bell, Michel Lonchampt, and John R. Speakman, Obesity Research 2005 13 (9), 1558). One scanning procedure takes up to five minutes per individual and provides data on fat mass, lean mass, bone mineral content and bone mineral density. The method is validated against Soxhlet (SOX) fat extraction in mice and a strong correlation (r 2>0.95) between fatDEXA and fatSOX is determined (published information).
As a control experiment within the high fat diet, epigallocatechin-3-gallate (EGCG, Chengdu Purification Technology Development Co. Ltd, Chengdu, China) in pure form is used as the standard for comparison of potency and differentiation as well as benchmark against competing compounds or formulations against obesity. […] EGCG is marketed as a functional food ingredient claiming an anti-obesity effect (Wolfram, S et al. Mol Nutr Food Res 2006; 50(2):176-87; Wolfram, S et al. Ann Nutr Metab 2005; 49(1):54-6, Klaus, S et al. Int J Obes 2005; 29(6):615-23; Hill, A M et al. J Am Coil Nutr. 2007; 26(4):396S-402S). The final concentration of EGCG used is 0.1%, too.

[4] = Clinical blood chemistry of the rat study; assay type: in vivo; conditions: rats under high fat (HF) diet
Procedure: The following parameters are involved in energy metabolism and thereby related to the metabolic syndrome. They are determined from blood samples taken in week 1; 4; and 8 of the rat study: Total cholesterol levels; HDL, LDL, TG (triglycerides), and glucose. Furthermore, the activity of liver enzymes such as ALT (alanin-aminotransferase), AST (aspartat-aminotransferase), and AP (alkaline phosphatase), as well as the concentration of Bilirubin, Albumin, Creatin Kinase, and electrolytes (Na+; K+; Ca++; Cl−) are determined as safety markers to exclude any toxic effects such as e.g. liver damage.
Blood samples are taken from the sublingual vein and collected in Li-Heparin coated vials. The blood samples are stored on ice for a short period of time before it is centrifuged for 15 minutes at 8° C. and 3500 rpm. The supernatant plasma is transferred in a reaction tube and stored at −80° C. until clinical chemistry measurements are performed. All measurements are conducted using an Olympus AU 400 at the gene centre of the LMU Munich, working group of Prof. Wolf. Statistical calculations are performed with Statistika (Statsoft (Europe) GmbH, Hamburg, Germany) und Sigma Stat (Jandel Scientific, San Raphael, Calif., USA).

[5] = Pathological parameters: macroscopic organ inspection and kidney histo-pathology; assay type: in vivo; conditions: rat feeding study
Procedure: Main organs are analysed macroscopically for safety reasons and to investigate the effects of the different diets on these organs (e.g. induction of […] (“fatty”) livers etc.). After organ removal, macroscopic inspections of e.g. heart, kidneys; GI tract, spleen, liver are performed.

Compound	antifeeding activity [1]	larval growth [1]	lipid levels in blood [1]	serum TG, long term [2]	body fat accumulation (DEXA) in comparison to the control groups [3]	body weight accumulation in comparison to the control groups [3]	other results
C=C1CC(O)C2C(=C)C(=O)OC2C2C(C)C(=O)CC12 (centres unmarked) [Grossheimin, 4-hydroxy-9-methyl-3,6-dimethylene-3a,4,5,6a,7,9,9a,9b-octahydroazuleno[5,4-d]furan-2,8-dione]	no anti-feeding	inhibition of larval growth	no effect	–	–	–	absorption of digested food constituents [1]: little decrease; efficiency in digesting [1]: little decrease
C=C(C)C(=O)O[C@H]1CC(=C)[C@@H]2C[C@H](O)C(=C)[C@@H]2[C@H]2OC(=O)C(=C)[C@@H]21 [aguerine B, reference compound]	–	–	–	increase	–	–	–
C=C1C(=O)O[C@H]2[C@H]1[C@@H](OC(=O)[C@]1(C)CO1)CC(=C)[C@@H]1C[C@H](O)[C@]3(CO3)[C@H]21 [repin, reference compound]	antifeeding activity	inhibition of larval growth	no effect	–	–	–	–
epigallocatechin-3-gallate [EGCG, reference compound]	–	–	–	–	No effects	No effects	–
C=C(CO)C(=O)OC1CC(=C)C2CC(O)C(=C)C2C2OC(=O)C(=C)C12 (centres unmarked) [Cynaropicrin, (8-hydroxy-3,6,9-trimethylidene-2-oxo-3a,4,5,6a,7,8,9a, 9b-octahydroazuleno[4,5-b]furan-4-yl) 2-(hydroxymethyl)prop-2-enoate]	–	–	–	increase	reduced body fat accumulation	reduced body weight accumulation	total cholesterol:HDL/LDL ratio compared to the control group (HF only) [4]: improved; macroscopic inspection of main organs (heart, kidneys, GI tract, spleen, liver) ([5]; after organ removal): no significant alterations; histo-pathological analysis of the kidneys (morphology and function) [5]: does not result in any observation of an adverse effect

From patent US20200055835A1, “USE OF TRICYCLIC SESQUITERPENE LACTONES IN THE TREATMENT OF OBESITY AND RELATED DISEASES AND NON-THERAPEUTIC TREATABLE CONDITIONS” (NEEM BIOTECH LTD., priority 2010, published 2020)
